The assay addresses T1, USP25 (USP25-His6, Boston Biochem E-546) (Homo sapiens, UniProt Q9UHP3).
T1 construct: His6; purchased Boston Biochem E-546
T1 sequence (Q9UHP3 1-1055): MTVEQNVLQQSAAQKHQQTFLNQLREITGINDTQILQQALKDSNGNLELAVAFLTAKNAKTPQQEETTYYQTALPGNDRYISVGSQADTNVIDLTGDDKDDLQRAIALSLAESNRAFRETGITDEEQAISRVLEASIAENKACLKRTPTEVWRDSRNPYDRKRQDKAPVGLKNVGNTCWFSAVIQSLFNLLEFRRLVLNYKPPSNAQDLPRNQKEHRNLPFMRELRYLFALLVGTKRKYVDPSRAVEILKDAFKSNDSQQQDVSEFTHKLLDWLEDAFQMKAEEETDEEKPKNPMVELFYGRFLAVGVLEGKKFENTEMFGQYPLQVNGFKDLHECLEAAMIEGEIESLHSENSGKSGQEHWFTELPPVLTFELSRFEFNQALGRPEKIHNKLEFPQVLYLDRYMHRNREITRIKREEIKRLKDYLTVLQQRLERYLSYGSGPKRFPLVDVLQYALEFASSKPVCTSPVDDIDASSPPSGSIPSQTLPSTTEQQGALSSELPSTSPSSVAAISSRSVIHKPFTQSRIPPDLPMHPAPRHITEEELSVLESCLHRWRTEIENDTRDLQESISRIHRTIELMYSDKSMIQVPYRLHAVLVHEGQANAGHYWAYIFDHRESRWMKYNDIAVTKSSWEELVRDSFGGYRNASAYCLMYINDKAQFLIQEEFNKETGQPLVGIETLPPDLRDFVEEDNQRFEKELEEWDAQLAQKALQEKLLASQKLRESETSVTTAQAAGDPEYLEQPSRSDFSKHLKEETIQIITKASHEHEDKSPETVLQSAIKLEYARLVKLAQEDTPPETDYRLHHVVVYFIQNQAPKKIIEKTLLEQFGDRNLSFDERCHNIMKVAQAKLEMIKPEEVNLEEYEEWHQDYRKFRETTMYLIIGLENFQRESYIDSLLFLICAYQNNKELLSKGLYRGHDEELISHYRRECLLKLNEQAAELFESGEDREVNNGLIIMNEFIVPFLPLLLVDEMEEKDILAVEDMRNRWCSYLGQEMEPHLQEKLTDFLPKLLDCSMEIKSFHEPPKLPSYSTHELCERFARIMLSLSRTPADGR
Briefly: Ubiquitin-Rhodamine 110 Assay for USP25 Activity, Example A-2. The following applies: Ubiquitin-Rhodamine 110 assay, Example A-2; read-out: USP25 A-2 IC50 range. The format is biochemical. The gist of the method:
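Inhibition is quantified as IC50 by 4-parameter fit of fluorescence (485/535 nm) from Ub-Rh110 hydrolysis. Enzyme USP25-His6 at 75 pM with 30 min compound preincubation, then 25 nM substrate for 45 min at room temperature in pH 8.0 Tris buffer containing BME.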

One may read the IC50 as the concentration that inhibits the measured activity by half.

As to `O=C(N[C@H]1COc2cc(N3CCNCC3)ccc2C1)c1cnc2c(c1)CC[C@@H]2O` [Example 58, (S)-7-hydroxy-N-((R )-7-(piperazin-1-yl)chroman-3-yl)-6,7-dihydro-5H-cyclopenta[b]pyridine-3-carboxamide], the IC50 was > 2000 nM. Turning to `O=C(N[C@H]1COc2cc(N3CCNCC3)ccc2C1)c1cnc2c(ccn2Cc2ccccc2)c1` [Example 59, (R)-1-benzyl-N-(7-(piperazin-1-yl)chroman-3-yl)-1H-pyrrolo[2,3-b]pyridine-5-carboxamide], the IC50 lay in the range of 1 to 50 nM. Then `Cc1cnc2c(N)c(C(=O)N[C@H]3COc4c(C#N)c(N5CCNCC5)cc(F)c4C3)sc2n1` [Example 60, (R)-7-amino-N-(8-cyano-5-fluoro-7-(piperazin-1-yl)chroman-3-yl)-3-methylthieno[2,3-b]pyrazine-6-carboxamide], with 200 to 2000 nM; and `Cc1ccc2c(N)c(C(=O)N[C@H]3COc4cc(N5CCNCC5)c(F)c(F)c4C3)sc2n1` [Example 61, (R)-3-amino-N-(5,6-difluoro-7-(piperazin-1-yl)chroman-3-yl)-6-methylthieno[2,3-b]pyridine-2-carboxamide], with 50 to 200 nM; and `Cc1ccc2c(N)c(C(=O)N[C@H]3COc4cc([C@H]5CCNC[C@H]5O)ccc4C3)sc2n1` [Example 62, 3-amino-N-((R)-7-((3S,4R)-3-hydroxypiperidin-4-yl)chroman-3-yl)-6-methylthieno[2,3-b]pyridine-2-carboxamide], with 1 to 50 nM. As to `Cc1ccc2c(N)c(C(=O)N[C@H]3COc4cc([C@@H]5CCNC[C@@H]5O)ccc4C3)sc2n1` [Example 63, 3-amino-N-((R)-7-((3R,4S)-3-hydroxypiperidin-4-yl)chroman-3-yl)-6-methylthieno[2,3-b]pyridine-2-carboxamide], the IC50 was 50 to 200 nM.

As to `Cc1ccc2c(N)c(C(=O)N[C@H]3COc4cc([C@H]5CCNC[C@@H]5O)ccc4C3)sc2n1` [Example 64, 3-amino-N-((R)-7-((3R,4R)-3-hydroxypiperidin-4-yl)chroman-3-yl)-6-methylthieno[2,3-b]pyridine-2-carboxamide], the IC50 lay within 50 to 200 nM. Then `Cc1ccc2c(N)c(C(=O)N[C@H]3COc4cc([C@@H]5CCNC[C@H]5O)ccc4C3)sc2n1` [Example 65, 3-amino-N-((R)-7-((3S,4S)-3-hydroxypiperidin-4-yl)chroman-3-yl)-6-methylthieno[2,3-b]pyridine-2-carboxamide], with 50 to 200 nM.

Turning to `Cc1nc2sc(C(=O)N[C@H]3COc4cc(N5CCNCC5)c(F)c(F)c4C3)c(N)c2s1` [Example 66, (R)-6-amino-N-(5,6-difluoro-7-(piperazin-1-yl)chroman-3-yl)-2-methylthieno[2,3-d]thiazole-5-carboxamide], the IC50 was 200 to 2000 nM. Then `Cc1cnc2c(N)c(C(=O)N[C@H]3COc4cc(N5CCNCC5)c(C#N)c(F)c4C3)sc2n1` [Example 67, (R)-7-amino-N-(6-cyano-5-fluoro-7-(piperazin-1-yl)chroman-3-yl)-3-methylthieno[2,3-b]pyrazine-6-carboxamide], with 50 to 200 nM. To `Cc1ccc2c(N)c(C(=O)N[C@H]3COc4c(F)c(N5CCNCC5)cc(F)c4C3)oc2n1` [Example 68, (R)-3-amino-N-(5,8-difluoro-7-(piperazin-1-yl)chroman-3-yl)-6-methylfuro[2,3-b]pyridine-2-carboxamide] belongs > 2000 nM; to `Cc1ccc2c(N)c(C(=O)N[C@H]3COc4cc([C@H]5CCNCC5(F)F)ccc4C3)sc2n1` [Example 69, 3-amino-N-((R)-7-((R)-3,3-difluoropiperidin-4-yl)chroman-3-yl)-6-methylthieno[2,3-b]pyridine-2-carboxamide], 50 to 200 nM.

In the case of `Cc1ccc2c(N)c(C(=O)N[C@H]3COc4cc([C@@H]5CCNCC5(F)F)ccc4C3)sc2n1` [Example 70, 3-amino-N-((R)-7-((S)-3,3-difluoropiperidin-4-yl)chroman-3-yl)-6-methylthieno[2,3-b]pyridine-2-carboxamide], the IC50 was 1 to 50 nM.

Consider `Cc1cnc2c(N)c(C(=O)N[C@H]3COc4cc(N5CCNCC5)ncc4C3)sc2n1` [Example 71, (R)-7-amino-3-methyl-N-(7-(piperazin-1-yl)-3,4-dihydro-2H-pyrano[3,2-c]pyridin-3-yl)thieno[2,3-b]pyrazine-6-carboxamide], for which the IC50 fell in the range of 200 to 2000 nM. For `Cc1nc2sc(C(=O)N[C@H]3COc4cc(N5CCNCC5)ncc4C3)c(N)c2cc1F` [Example 72, (R)-3-amino-5-fluoro-6-methyl-N-(7-(piperazin-1-yl)-3,4-dihydro-2H-pyrano[3,2-c]pyridin-3-yl)thieno[2,3-b]pyridine-2-carboxamide], the IC50 fell in the range of 200 to 2000 nM. Then `C[C@@H]1CCc2cc(C(=O)N[C@H]3COc4cc(N5CC6CCC(C5)N6)ccc4C3)cnc2N1` [Example 74, (7R)-N-((3R)-7-(3,8-diazabicyclo[3.2.1]octan-3-yl)chroman-3-yl)-7-methyl-5,6,7,8-tetrahydro-1,8-naphthyridine-3-carboxamide], with 200 to 2000 nM. Turning to `Cc1ccc2c(N)c(C(=O)N[C@H]3COc4cc(N5C[C@@H]6CC[C@H]5CN6)ncc4C3)sc2n1` [Example 75, N-((R)-7-((1S, 4S)-2 5-diazabicyclo[2.2.2]octan-2-yl)-3,4-dihydro-2H-pyrano[3,2-c]pyridin-3-yl)-3-amino-6-methylthieno[2,3-b]pyridine-2-carboxamide], the IC50 lay in the range of 1 to 50 nM. To `Cc1ccc2c(N)c(C(=O)N[C@H]3COc4cc(N5C[C@H]6CC[C@@H]5CN6)ncc4C3)sc2n1` [Example 76, N-((R)-7-((1 R,4R)-2,5-diazabicyclo[2.2.2]octan-2-yl)-3,4-dihydro-2H-pyrano[3,2-c]pyridin-3-yl)-3-amino-6-methylthieno[2,3-b]pyridine-2-carboxamide] belongs 50 to 200 nM. On to `Cc1cnc2c(N)c(C(=O)N[C@H]3COc4c(C#N)c(N5CC6CC(C5)N6)cc(F)c4C3)sc2n1` [Example 77, N-((3R)-7-(3,6-diazabicyclo[3.1.1]heptan-3-yl)-8-cyano-5-fluorochroman-3-yl)-7-amino-3-methylthieno[2,3-b]pyrazine-6-carboxamide], for which the IC50 lay within 200 to 2000 nM. To `Cc1ccc2c(N)c(C(=O)N[C@H]3COc4c(F)c(N5CC6CNCC(C5)O6)cc(F)c4C3)sc2n1` [Example 78, N-((3R)-7-(9-oxa-3,7-diazabicyclo[3.3.1]nonan-3-yl)-5,8-difluorochroman-3-yl)-3-amino-6-methylthieno[2,3-b]pyridine-2-carboxamide] belongs 1 to 50 nM; to `Cc1ccc2c(N)c(C(=O)N[C@H]3COc4cc(N5CC6CNCC(C5)O6)c(F)c(F)c4C3)sc2n1` [Example 79, N-((3R)-7-(9-oxa-3,7-diazabicyclo[3.3.1]nonan-3-yl)-5,6-difluorochroman-3-yl)-3-amino-6-methylthieno[2,3-b]pyridine-2-carboxamide], 1 to 50 nM.

Consider `Cc1ccc2c(N)c(C(=O)N[C@H]3COc4cc([C@H]5CCNC[C@@H]5F)ccc4C3)sc2n1` [Example 80, 3-amino-N-((R)-7-((3R,4R)-3-fluoropiperidin-4-yl)chroman-3-yl)-6-methylthieno[2,3-b]pyridine-2-carboxamide], for which the IC50 is 50 to 200 nM.
